Reference: patent publication US20020052295A1, “Diacyl derivatives of propylene diamine having herbicidal activity” (priority 1999, published 2002)

Tests used:
Settings in all cases: lowest tested rate giving 80% or greater inhibition, approx. 14 days after planting and treating, greenhouse
[1] = system: ABUTH; assay: Pre-emergence herbicidal activity on ABUTH (velvetleaf); format: in vivo, Abutilon theophrasti
Text: (§1) All such uses, and the biological activity enabling such uses, are embraced by the term “herbicidal” herein. Tables 15 and 16 summarize results of tests conducted as described below to determine the pre-emergence herbicidal activity, in the form of a GR80 value, of illustrative compounds of this invention. […] Where herbicidal activity was evident but 80% inhibition was not achieved at the highest rate tested (typically 1000 g/ha), an asterisk (*) is shown in the following tables. Herbicidal activity evident in the form of symptoms of phytotoxicity, in the absence of at least 80% inhibition at any rate, is indicated in the tables by “phyto”. A blank cell in the following tables indicates no herbicidal or phytotoxic response at any rate tested.
(§2) The pre-emergence tests were conducted by the following procedure. Topsoil was sieved to pass through a 1.27 cm screen. Fertilizer was added to the topsoil and the mixture was then sterilized by heating. The topsoil mixture was placed in a pot and compacted to a depth of 1.0 to 1.25 cm from the top of the pot. Seeds of each of several monocotyledonous and dicotyledonous annual plant species were placed on top of the soil. Additional soil was subsequently placed over the seeds to level-fill the pot. A known amount of each test compound dissolved or suspended in an appropriate organic solvent was diluted with a 50:50 mix of acetone and water and applied to the surface of the soil. After treatment the plants were placed in a greenhouse with a 30/21° C. day/night temperature regime where they received 0.64 cm of overhead irrigation. All subsequent watering consisted of a light overhead mist and/or subirrigation as needed for germination and growth.
(§3) Approximately 14 days after planting and treating, the plants were observed and herbicidal efficacy recorded as percent inhibition by comparison with untreated plants.
(§4) The plant species usually regarded as weeds which were utilized in the tests are identified in the tables below according to the following legend, in which “d” indicates a dicotyledonous species and “m” a monocotyledonous species. All monocotyledonous species included in the tests herein are grasses.

[2] = system: SOLNI; assay: Pre-emergence herbicidal activity on SOLNI (black nightshade); format: in vivo, Solanum nigrum
Text: as §1, §2, §3, §4

[3] = system: AMARE; assay: Pre-emergence herbicidal activity on AMARE (redroot pigweed); format: in vivo, Amaranthus retroflexus
Text: as §1, §2, §3, §4

[4] = system: DATST; assay: Pre-emergence herbicidal activity on DATST (jimsonweed); format: in vivo, Datura stramonium
Text: as §1, §2, §3, §4

[5] = system: CHEAL; assay: Pre-emergence herbicidal activity on CHEAL (common lambsquarters); format: in vivo, Chenopodium album
Text: as §1, §2, §3, §4

[6] = system: POROL; assay: Pre-emergence herbicidal activity on POROL (common purslane); format: in vivo, Portulaca oleracea
Text: as §1, §2, §3, §4

[7] = system: CIRAR; assay: Pre-emergence herbicidal activity on CIRAR (canada thistle, seedling); format: in vivo, Cirsium arvense
Text: as §1, §2, §3, §4

[8] = system: ECHCG; assay: Pre-emergence herbicidal activity on ECHCG (barnyardgrass); format: in vivo, Echinochloa crus-galli
Text: as §1, §2, §3, §4

[9] = system: DIGSA; assay: Pre-emergence herbicidal activity on DIGSA (large crabgrass); format: in vivo, Digitaria sanguinalis
Text: as §1, §2, §3, §4

[10] = system: CONAR; assay: Pre-emergence herbicidal activity on CONAR (field bindweed); format: in vivo, Convolvulus arvensis
Text: as §1, §2, §3, §4

[11] = system: SETFA; assay: Pre-emergence herbicidal activity on SETFA (giant foxtail); format: in vivo, Setaria faberi
Text: as §1, §2, §3, §4

[12] = system: PANDI; assay: Pre-emergence herbicidal activity on PANDI (fall panicum); format: in vivo, Panicum dichotomiflorum
Text: as §1, §2, §3, §4

[13] = system: PANMI; assay: Pre-emergence herbicidal activity on PANMI (wild proso millet); format: in vivo, Panicum miliaceum
Text: as §1, §2, §3, §4

[14] = system: SORHA; assay: Pre-emergence herbicidal activity on SORHA (johnsongrass, seedling); format: in vivo, Sorghum halepense
Text: as §1, §2, §3, §4

[15] = system: BRAPP; assay: Pre-emergence herbicidal activity on BRAPP (broadleaf signalgrass); format: in vivo, Brachiaria platyphylla
Text: as §1, §2, §3, §4

Row | Compound | Pre-emergence activity (GR80) on ABUTH [1] | Pre-emergence activity (GR80) on SOLNI [2] | Pre-emergence activity (GR80) on AMARE [3] | Pre-emergence activity (GR80) on DATST [4] | Pre-emergence activity (GR80) on CHEAL [5] | Pre-emergence activity (GR80) on PORAL [6] | Pre-emergence activity (GR80) on CIRAR [7] | Pre-emergence activity (GR80) on ECHCG [8] | Pre-emergence activity (GR80) on DIGSA [9] | Pre-emergence activity (GR80) on CONAR [10] | Pre-emergence activity (GR80) on SETFA [11] | Pre-emergence activity (GR80) on PANDI [12] | Pre-emergence activity (GR80) on PANMI [13] | Pre-emergence activity (GR80) on SORHA [14] | Pre-emergence activity (GR80) on BRAPP [15]
1 | CC(CNC(=O)c1cccc(Br)c1)NC(=O)c1cccc(C(F)(F)F)c1F (stereo not shown) [Example 152] | 750 g/ha | 500 g/ha | 250 g/ha | 750 g/ha | 250 g/ha | 125 g/ha | 250 g/ha | 750 g/ha | 500 g/ha | – | – | – | – | – | –
2 | CC(CNC(=O)c1cccc(Cl)c1F)NC(=O)c1cccc(Cl)c1F (stereo not shown) [Example 181] | phyto | * (Where herbicidal activity was evident but 80% inhibition was not achieved at the highest rate tested (typically 1000 g/ha), an asterisk (*) is shown) | 500 g/ha | * (Where herbicidal activity was evident but 80% inhibition was not achieved at the highest rate tested (typically 1000 g/ha), an asterisk (*) is shown) | 750 g/ha | – | * (Where herbicidal activity was evident but 80% inhibition was not achieved at the highest rate tested (typically 1000 g/ha), an asterisk (*) is shown) | – | 500 g/ha | phyto | phyto | phyto | – | – | –
3 | CC(CNC(=O)c1cccc(C(F)(F)F)c1)NC(=O)c1cc(C(F)(F)F)ccc1Cl (stereo not shown) [Example 9] | phyto | 500 g/ha | 125 g/ha | 500 g/ha | 500 g/ha | 125 g/ha | 750 g/ha | phyto | 500 g/ha | – | 1000 g/ha | 500 g/ha | phyto | * (Where herbicidal activity was evident but 80% inhibition was not achieved at the highest rate tested (typically 1000 g/ha), an asterisk (*) is shown) | phyto
4 | Cc1ccc(C)c(C(=O)NC(C)CNC(=O)c2cccc(C(F)(F)F)c2)c1 (stereo not shown) [Example 64] | 500 g/ha | 250 g/ha | 250 g/ha | 1000 g/ha | 250 g/ha | 250 g/ha | 250 g/ha | 1000 g/ha | 250 g/ha | – | 1000 g/ha | 250 g/ha | 500 g/ha | * (Where herbicidal activity was evident but 80% inhibition was not achieved at the highest rate tested (typically 1000 g/ha), an asterisk (*) is shown) | 500 g/ha
5 | CC(CNC(=O)c1cccc(C(F)(F)F)c1)NC(=O)c1cccc(C(F)(F)F)c1I (stereo not shown) [Example 15] | – | * (Where herbicidal activity was evident but 80% inhibition was not achieved at the highest rate tested (typically 1000 g/ha), an asterisk (*) is shown) | 64 g/ha | * (Where herbicidal activity was evident but 80% inhibition was not achieved at the highest rate tested (typically 1000 g/ha), an asterisk (*) is shown) | 125 g/ha | 500 g/ha | phyto | phyto | phyto | phyto | phyto | phyto | – | – | –
